Experimental data from PubChem BioAssay AID588620 (NMMLSC, 2011).
Values joined by “and” are separate entries in the source; they are usually repeats but may differ in a detail not shown here. Equal values may be shown once. Active and inactive are the calls of the source.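 The calls were made as follows: active = fitted half-maximal concentration below 30 µM for cell fluorescence in pump-free yeast, so likely self-fluorescent; inactive = the rest.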

experiment: concentration-dependent intrinsic compound fluorescence, S. cerevisiae AD/pABC3, flow cytometry, Cherry Pick1 hits, artefact control for antifungal efflux pump inhibitor project, dose response (AID 588620);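 also: red emission of unstained cells excited at 488 nm measured in PE-Texas Red channel; cell median fluorescence as percent of DMSO wells so 100% equals vehicle baseline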; conditions: S. cerevisiae AD/pABC3 compound autofluorescence, flow cytometry; at 33.1 µM (top of the series)

Structure (SMILES) | fluorescence response, % of control
Clc1ccc(C(c2ccc(Cl)cc2)n2cc[n+](CC(OCc3ccc(Cl)cc3Cl)c3ccc(Cl)cc3Cl)c2)cc1 (stereo unspecified) | 112% (inactive)
O=C1C(Cc2ccccc2)Nc2ncnc(N3CCN(c4ccccc4)CC3)c2N1Cc1ccc(Cl)cc1 (stereo unspecified) | 97.1% (inactive)
COc1cc(OC)cc(-c2sc3ccc(OC)cc3c2-c2ccc(OCCN3CCCCC3)cc2)c1 | 122% (inactive)
COc1ccc(CCC(=O)NNC(=O)Cn2nc(C)cc2C)cc1 | 100% (inactive)
CCCCCCCCCCOC(=O)Cn1c(COc2ccc(Cl)cc2)[n+](C)c2ccccc21 | 106% (inactive)
COC(=O)c1ccc(CN2CCC(Oc3cccc(C(=O)N4CCCC4)c3)CC2)cc1 | 95.7% (inactive)
CCN1CCN(c2cc(SC(C)C)nc(-c3ccc(OC)cc3)n2)CC1 | 109% (inactive)
CC(C)(C)C(=O)CSc1nc2c(c(-c3cccs3)c1C#N)CCC2 | 92.4% (inactive)
COc1cccc(C(=O)NC2CC(C)(C)Cc3c2cnn3-c2cccc(F)c2)c1OC (stereo unspecified) | 121% (inactive)
O=C(Nc1ccccc1C(=O)O)c1ccc(NC(=O)c2ccc(Br)o2)cc1 | 107% (inactive)
CCCCCCCCCCOC(=O)Cn1c(COc2cccc(C)c2)[n+](C)c2ccccc21 | 105% (inactive)
C[C@H](CO)N1C[C@H](C)[C@@H](CN(C)S(=O)(=O)c2ccccc2)Oc2c(NC(=O)Nc3ccccc3)cccc2C1=O | 83.7% (inactive)
Cc1c2ccncc2c(C)c2c1[nH]c1ccccc12 | 132% (inactive) and 1000% (inactive)
CSc1ccccc1NC(=O)c1cc(-c2ccc3c(c2)OCO3)on1 | 101% (inactive)
CCOc1ccccc1-c1nc(C(N)=O)c2[nH]c(=O)n(-c3cccc(C)c3)c2n1 | 80.3% (inactive)
COC(=O)C1=C(C)N=c2s/c(=C/c3ccoc3)c(=O)n2C1c1ccccc1 (stereo unspecified) | 821% (inactive)
C#CC[N+](C)(C)CCCCCCCCCCCC | 117% (inactive)
CCC1Nc2ncnc(N3CCN(c4ccccn4)CC3)c2N(Cc2ccc(Br)cc2)C1=O (stereo unspecified) | 85.4% (inactive)
Cc1nnc(N/N=C/c2cc([N+](=O)[O-])c(N3CCC(C)CC3)cc2N2CCC(C)CC2)n1N | 97.1% (inactive)
NC(=O)c1nc(-c2ccco2)nc2c1[nH]c(=O)n2-c1ccc(Cl)c(Cl)c1 | 112% (inactive)
Cc1ccc(CCNC(=O)CCCn2nc(C)c3c(C)n(-c4ccc(C)cc4)nc3c2=O)cc1 | 101% (inactive)

Structure (SMILES) | fluorescence response, % of control
COc1ccc2c(c1)OC[C@H]1[C@H]2N2C(=O)c3ccc(C)cc3NC(=O)[C@@]2(C)[C@H]1c1ccccc1 | 106% (inactive)
O=C(COC(=O)c1c(Cl)cccc1Cl)NCC1CCCO1 (stereo unspecified) | 106% (inactive)
COc1ccc2c(c1)C(=O)N1[C@H]3c4cc(Cl)ccc4OC[C@@H]3[C@H](c3ccccc3)[C@]1(C)C(=O)N2 | 98.5% (inactive)
Clc1ccc(Cn2nc(-c3ccccc3)nc2-c2ccccc2)cc1 | 108% (inactive)
O=C1C(Cc2ccccc2)Nc2ncnc(N3CCN(c4ccccc4)CC3)c2N1Cc1ccc(Br)cc1 (stereo unspecified) | 116% (inactive)
CCOc1cc2[nH]c(=S)n(CCC(=O)NCc3ccc(OC)cc3)c(=O)c2cc1OCC | 93.1% (inactive)
COc1ccc(-c2sc3cc4c(cc3c2-c2ccc(OCCN3CCCCC3)cc2)OCO4)cc1 | 91.7% (inactive)
O=C(O)C(c1ccccc1)N1C(=O)/C(=C\c2ccc(O)c(O)c2)SC1=S (stereo unspecified) | 226% (inactive)
CCC(Sc1nc2ccsc2c(=O)n1Cc1ccc(C(=O)O)cc1)C(=O)Nc1ccc(C)c(Cl)c1 (stereo unspecified) | 81.2% (inactive)
CC1Cc2cc(S(=O)(=O)NCc3ccccc3)ccc2N1C(=O)C1CCC1 (stereo unspecified) | 89% (inactive)
O=C(NC(=S)Nc1ccc2[nH]c(=O)[nH]c2c1)c1cncc(Br)c1 | 102% (inactive)
CCCOc1ccc(/C=c2\sc3nc(-c4ccco4)nn3c2=O)cc1OCC | 95.1% (inactive)
Cc1cccc(NC(=O)c2nc[nH]c2C(=O)N[C@H](C)c2ccccc2)c1 | 92.4% (inactive)
O=c1[nH]c(C2CCN(S(=O)(=O)c3ccccc3C(F)(F)F)CC2)nc2c1nnn2Cc1ccccc1 | 92.4% (inactive)
COc1ccc(CN2C(=O)C(C)Nc3ncnc(N4CCN(c5ccccc5)CC4)c32)cc1 (stereo unspecified) | 106% (inactive)
COc1ccc(C(=O)NC2CCCc3c2cnn3-c2ccccc2F)o1 (stereo unspecified) | 86.3% (inactive)
Cc1ccc(CNC(=O)CCCn2nc(C)c3c(C)n(-c4ccccc4)nc3c2=O)cc1 | 93.6% (inactive)
O=C1/C(=C/c2ccc(O)c(O)c2)Oc2cc(O)ccc21 | 426% (inactive)
CCCCc1nnc(NC(=O)COc2ccc3c(C)cc(=O)oc3c2)s1 | 134% (inactive)
Cc1ccc(CC2CC(=O)N(Cc3ccco3)C2=O)cc1 (stereo unspecified) | 93.5% (inactive)
COc1ccc(-c2nc3ccccc3c(=O)n2CCOc2ccccc2C)cc1 | 103% (inactive)

Structure (SMILES) | fluorescence response, % of control
Cc1c(CCOC(=O)CC23CC4CC(CC(C)(C4)C2)C3)sc[n+]1Cc1ccc([N+](=O)[O-])cc1 | 83.6% (inactive)
Cc1ccc2nc(-c3ccccc3)cc(C(=O)N3CCN(S(=O)(=O)c4c(C)noc4C)CC3)c2c1 | 109% (inactive)
COc1ccc(-c2[nH]c(-c3ccc4c(c3)OCO4)nc2-c2ccccc2)cc1 | 80.8% (inactive)
COc1ccc(OC)c(-c2nc(C(N)=O)c3[nH]c(=O)n(-c4ccc(F)cc4)c3n2)c1 | 104% (inactive)
O=S(=O)(Nc1cc(Sc2ncn[nH]2)c(O)c2ccccc12)c1ccccc1 | 140% (inactive)
S=C(Nc1ccc(Cl)cc1Cl)N1CCCCC1 | 135% (inactive)
COc1ccc(C2=NCC(=O)N(CC(=O)NCc3ccco3)c3sc4c(c32)CCCC4)cc1 | 95.7% (inactive)
O=C(c1cc(COc2cccc(C(F)(F)F)c2)on1)N1CCC(c2ccncc2)CC1 | 109% (inactive)
CCOC(=O)c1cnc(SC)nc1Oc1cccc(NC(=O)c2ccc(Cl)cc2)c1 | 90.9% (inactive)
N#CCCN1CCN(C(=S)c2ccc(-c3ccc(Cl)c(Cl)c3)o2)CC1 | 75.6% (inactive)
CN(C)CCN(C(=O)c1ccc(S(=O)(=O)N2CCc3ccccc32)cc1)c1nc2ccc(F)cc2s1 | 196% (inactive)
Cc1ccc(S(=O)(=O)N2CCOCC2)cc1NC(=O)COC(=O)CNC(=O)c1ccccc1 | 102% (inactive)
O=c1[nH]c(C2CCN(S(=O)(=O)c3ccc4c(c3)OCCO4)CC2)nc2c1nnn2Cc1cccc(F)c1 | 172% (inactive)
Nc1c(Cl)cc(C2=NCCn3nc4ccccc4c32)cc1Cl | 88.6% (inactive)
CCCCCc1cc(=O)oc2c(C(CCN3CCCC(C)C3)c3ccc(N(C)C)cc3)c(OC)cc(OC)c12 (stereo unspecified) | 94.5% (inactive)
CC(C)c1ccc(/C=c2\sc3nc(-c4ccncc4)nn3c2=O)cc1 | 82.5% (inactive)
CCC1Nc2ncnc(N3CCN(c4ccccc4)CC3)c2N(Cc2ccccc2)C1=O (stereo unspecified) | 103% (inactive)
COc1ccc2sc(-c3ccccc3OC)c(-c3ccc(OCCN4CCCC4)cc3)c2c1 | 114% (inactive)
COc1ccc(-c2sc3ccccc3c2-c2ccc(OCCN(C)C)cc2)cc1 | 112% (inactive)
Cc1ccc(-n2c(-c3ccc(Br)cc3)c[n+]3c2CCc2ccc4cccnc4c2-3)cc1 | 92.4% (inactive)
COc1ccc(CC(=O)Nc2ccc(NC(=O)c3ccc(Br)cc3)cc2)cc1OC | 134% (inactive)

Structure (SMILES) | fluorescence response, % of control
COCCCn1c(=S)[nH]c2ccc(N3CCOCC3)cc2c1=O | 105% (inactive)
COc1ccc([C@H]2CC(=O)C=C(c3ccnc4ccc(Cl)cc34)C2)cc1 | 92.4% (inactive)
Cc1cc(C(=O)COC(=O)c2ccc[nH]c2=O)c(C)n1-c1ccc(F)cc1 | 102% (inactive)
COc1ccc(-c2sc3ccc(OC)cc3c2-c2ccc(OCCN3CCOCC3)cc2)cc1 | 96.3% (inactive)
COc1cccc(-c2sc3ccc(OC)cc3c2-c2ccc(OCCN3CCCCC3)cc2)c1 | 102% (inactive)
COc1ccc(/C=C2\SC(=O)N(CCC(=O)Nc3ccccc3)C2=O)cc1OC | 99.1% (inactive)
CC(=O)Nc1ccc(NC(=O)Cc2ccc(F)cc2)cc1 | 106% (inactive)
O=C(CSc1nnc(Cc2cccs2)n1Cc1ccco1)Nc1ccc(Br)cc1 | 86% (inactive)
COc1ccc(-c2nc3ccccc3c(=O)n2CCOc2ccc(C)cc2C)cc1 | 113% (inactive)
Cn1cc(C(c2ccccn2)c2cn(C)c3ccccc23)c2ccccc21 | 97.1% (inactive)
O=C(/C=C/c1ccccc1[N+](=O)[O-])NCCc1ccc(F)cc1 | 90.8% (inactive)
C[C@H](CO)N1C[C@H](C)[C@@H](CN(C)S(=O)(=O)c2cccs2)Oc2c(NC(=O)Nc3ccc4c(c3)OCO4)cccc2C1=O | 96.9% (inactive)
COc1ccc(/C=N/N=C2/NC(=O)C(CC(=O)O)S2)cc1OCc1ccc(Cl)cc1 (stereo unspecified) | 91.7% (inactive)
NC1=NC[C@H](Cc2ccccc2)N1CCCCC1CCCCC1 | 127% (inactive)
CCCCOc1ccc(C(=O)NCC(=O)OCC(=O)c2c(N)n(C)c(=O)n(C)c2=O)cc1 | 89% (inactive)
COc1ncccc1C(=O)NC1CCCc2c1cnn2-c1cc(C)cc(C)c1 (stereo unspecified) | 76.4% (inactive)
CCOC(=O)c1sc2nc3c(SCC(=O)O)cc(C(=O)c4ccccc4O)cn3c(=O)c2c1C | 132% (inactive)
O=C(Cc1cccs1)N1CCN=C1SCc1ccccc1Cl | 121% (inactive)
